In the supplement of paper PMC10307832:

Key:
Experiment in all cases: relative viability (nuclei count vs DMSO), 5 days (fraction); higher = more cells survive
[1] = tested on: 201T
How it was run: (§1)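 A single step with final 0.05% Triton X-100, 1% formaldehyde and 1 ug/ml Hoechst fixed the cells and stained nuclei 5 days after treatment. Lung cancer cell lines in 1536-well plates had been treated by pin tool the day after seeding with one drug alone or a fixed anchor-drug dose plus five library-drug doses (not always all listed) in √10 steps, and nuclei were counted on 4× images. Relative viability is the ratio of nuclei in treated wells to nuclei in vehicle wells, taken as the median of duplicate plates.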

[2] = tested on: A-427
How it was run: as §1

[3] = tested on: BEN
How it was run: as §1

[4] = tested on: COR-L 105
How it was run: as §1

[5] = tested on: COR-L23
How it was run: as §1

[6] = tested on: EKVX
How it was run: as §1

[7] = tested on: HARA
How it was run: as §1

[8] = tested on: HCC-15
How it was run: as §1

[9] = tested on: HCC-44
How it was run: as §1

[10] = tested on: HCC-827
How it was run: as §1

[11] = tested on: LK-2
How it was run: as §1

[12] = tested on: NCI-H1437
How it was run: as §1

[13] = tested on: NCI-H1666
How it was run: as §1

[14] = tested on: NCI-H1975
How it was run: as §1

[15] = tested on: NCI-H23
How it was run: as §1

[16] = tested on: NCI-H358
How it was run: as §1

[17] = tested on: NCI-H441
How it was run: as §1

[18] = tested on: NCI-H596
How it was run: as §1

[19] = tested on: NCI-H650
How it was run: as §1

[20] = tested on: NCI-H838
How it was run: as §1

[21] = tested on: SK-MES-1
How it was run: as §1

[22] = tested on: SW 900
How it was run: as §1

Structure (SMILES): O=C(O)c1ccc(-c2c[nH]c3ncc(-c4ccccc4)cc23)cc1C1CCCC1 + Cc1cc(Nc2cc(N3CCN(C)CC3)nc(Sc3ccc(NC(=O)C4CC4)cc3)n2)n[nH]1 [Tozasertib] (partner 0.1 µM)
- relative viability ([1]; first compound 0.04 µM): 0.943
- relative viability ([1]; first compound 0.1265 µM): 0.973
- relative viability ([1]; first compound 0.4 µM): 0.893
- relative viability ([1]; first compound 1.265 µM): 0.771
- relative viability ([2]; first compound 0.04 µM): 0.23
- relative viability ([2]; first compound 0.1265 µM): 0.255
- relative viability ([2]; first compound 0.4 µM): 0.182
- relative viability ([2]; first compound 1.265 µM): 0.182
- relative viability ([3]; first compound 0.04 µM): 0.603
- relative viability ([3]; first compound 0.1265 µM): 0.501
- relative viability ([3]; first compound 0.4 µM): 0.49
- relative viability ([3]; first compound 1.265 µM): 0.437
- relative viability ([4]; first compound 0.04 µM): 0.304
- relative viability ([4]; first compound 0.1265 µM): 0.36
- relative viability ([4]; first compound 0.4 µM): 0.357
- relative viability ([4]; first compound 1.265 µM): 0.36
- relative viability ([5]; first compound 0.04 µM): 0.208
- relative viability ([5]; first compound 0.1265 µM): 0.177
- relative viability ([5]; first compound 0.4 µM): 0.166
- relative viability ([5]; first compound 1.265 µM): 0.119
- relative viability ([6]; first compound 0.04 µM): 0.404
- relative viability ([6]; first compound 0.1265 µM): 0.443
- relative viability ([6]; first compound 0.4 µM): 0.416
- relative viability ([6]; first compound 1.265 µM): 0.364
- relative viability ([7]; first compound 0.04 µM): 0.104
- relative viability ([7]; first compound 0.1265 µM): 0.0989
- relative viability ([7]; first compound 0.4 µM): 0.197
- relative viability ([7]; first compound 1.265 µM): 0.0904
- relative viability ([8]; first compound 0.04 µM): 0.403
- relative viability ([8]; first compound 0.1265 µM): 0.502
- relative viability ([8]; first compound 0.4 µM): 0.307
- relative viability ([8]; first compound 1.265 µM): 0.151
- relative viability ([9]; first compound 0.04 µM): 1.16
- relative viability ([9]; first compound 0.1265 µM): 1.15
- relative viability ([9]; first compound 0.4 µM): 0.853
- relative viability ([9]; first compound 1.265 µM): 0.616
- relative viability ([10]; first compound 0.04 µM): 0.459
- relative viability ([10]; first compound 0.1265 µM): 0.475
- relative viability ([10]; first compound 0.4 µM): 0.404
- relative viability ([10]; first compound 1.265 µM): 0.328
- relative viability ([11]; first compound 0.04 µM): 0.186
- relative viability ([11]; first compound 0.1265 µM): 0.161
- relative viability ([11]; first compound 0.4 µM): 0.181
- relative viability ([11]; first compound 1.265 µM): 0.184
- relative viability ([12]; first compound 0.04 µM): 0.402
- relative viability ([12]; first compound 0.1265 µM): 0.466
- relative viability ([12]; first compound 0.4 µM): 0.398
- relative viability ([12]; first compound 1.265 µM): 0.405
- relative viability ([13]; first compound 0.04 µM): 0.627
- relative viability ([13]; first compound 0.1265 µM): 0.587
- relative viability ([13]; first compound 0.4 µM): 0.546
- relative viability ([13]; first compound 1.265 µM): 0.419
- relative viability ([14]; first compound 0.04 µM): 0.681
- relative viability ([14]; first compound 0.1265 µM): 0.875
- relative viability ([14]; first compound 0.4 µM): 0.794
- relative viability ([14]; first compound 1.265 µM): 0.729
- relative viability ([15]; first compound 0.04 µM): 0.355
- relative viability ([15]; first compound 0.1265 µM): 0.369
- relative viability ([15]; first compound 0.4 µM): 0.364
- relative viability ([15]; first compound 1.265 µM): 0.353
- relative viability ([16]; first compound 0.04 µM): 0.0826
- relative viability ([16]; first compound 0.1265 µM): 0.107
- relative viability ([16]; first compound 0.4 µM): 0.0884
- relative viability ([16]; first compound 1.265 µM): 0.0978
- relative viability ([17]; first compound 0.04 µM): 0.71
- relative viability ([17]; first compound 0.1265 µM): 0.638
- relative viability ([17]; first compound 0.4 µM): 0.548
- relative viability ([17]; first compound 1.265 µM): 0.325
- relative viability ([18]; first compound 0.04 µM): 0.863
- relative viability ([18]; first compound 0.1265 µM): 0.802
- relative viability ([18]; first compound 0.4 µM): 0.851
- relative viability ([18]; first compound 1.265 µM): 0.93
- relative viability ([19]; first compound 0.04 µM): 0.706
- relative viability ([19]; first compound 0.1265 µM): 0.691
- relative viability ([19]; first compound 0.4 µM): 0.641
- relative viability ([19]; first compound 1.265 µM): 0.351
- relative viability ([20]; first compound 0.04 µM): 0.291
- relative viability ([20]; first compound 0.1265 µM): 0.274
- relative viability ([20]; first compound 0.4 µM): 0.232
- relative viability ([20]; first compound 1.265 µM): 0.229
- relative viability ([21]; first compound 0.04 µM): 0.93
- relative viability ([21]; first compound 0.1265 µM): 0.973
- relative viability ([21]; first compound 0.4 µM): 0.748
- relative viability ([21]; first compound 1.265 µM): 0.396
- relative viability ([22]; first compound 0.04 µM): 0.638
- relative viability ([22]; first compound 0.1265 µM): 0.585
- relative viability ([22]; first compound 0.4 µM): 0.526
- relative viability ([22]; first compound 1.265 µM): 0.311
